In US20240226026A1, “BRANCHED TAIL LIPID COMPOUNDS AND COMPOSITIONS FOR INTRACELLULAR DELIVERY OF THERAPEUTIC AGENTS” (ModernaTX, Inc., priority 2021, published 2024):

Legend:
[1] = Apparent pKa of lipid nanoparticles; format: physicochemical; details: for Apparent pKa 95% CI: Table 2b, 95% confidence interval; for Apparent pKa: Table 2a, nanoparticles comprising the lipid
[2] = Lipid nanoparticle surface hydrophobicity by Generalized Polarization by Laurdan (N-GP); format: physicochemical; details: for LNP surface hydrophobicity (N-GP*): Table 2b, nanoparticles comprising the lipid; for Lipid nanoparticle surface hydrophobicity (N-GP*): Table 2a, Laurdan, higher N-GP indicates a less polar surface
Source text: Surface hydrophobicity of nanoparticles of the disclosure can be measured by Generalized Polarization by Laurdan (GPL). In this method, Laurdan, a fluorescent aminonaphthalene ketone lipid, is post-inserted into the nanoparticle surface and the fluorescence spectrum of Laurdan is collected to determine the normalized Generalized Polarization (N-GP). In some embodiments, nanoparticles formulated with lipids of the disclosure have a surface hydrophobicity expressed as N-GP of between about 0.5 and about 1.5. For example, in some embodiments, nanoparticles formulated with lipids of the disclosure have a surface hydrophobicity expressed as N-GP of about 0.5, about 0.6, about 0.7, about 0.8, about 0.9, about 1.0, about 1.1, about 1.2, about 1.3, about 1.4, or about 1.5. In some embodiments, nanoparticles formulated with lipids of the disclosure have a surface hydrophobicity expressed as N-GP of about 1.0 or about 1.1.

[3] = Encapsulation efficiency (% EE) of lipid nanoparticles; format: physicochemical; details: nanoparticles comprising the lipid
Protocol: For nanoparticle compositions including an RNA, a QUANT-IT™ RIBOGREEN® RNA assay (Invitrogen Corporation Carlsbad, CA) can be used to evaluate the encapsulation of an RNA by the nanoparticle composition. The samples are diluted to a concentration of approximately 5 μg/mL in a TE buffer solution (10 mM Tris-HCl, 1 mM EDTA, pH 7.5). 50 μL of the diluted samples are transferred to a polystyrene 96 well plate and either 50 μL of TE buffer or 50 μL of a 2% Triton X-100 solution is added to the wells. The plate is incubated at a temperature of 37° C. for 15 minutes. The RIBOGREEN® reagent is diluted 1:100 in TE buffer, and 100 μL of this solution is added to each well. The fluorescence intensity can be measured using a fluorescence plate reader (Wallac Victor 1420 Multilablel Counter; Perkin Elmer, Waltham, MA) at an excitation wavelength of, for example, about 480 nm and an emission wavelength of, for example, about 520 nm. The fluorescence values of the reagent blank are subtracted from that of each of the samples and the percentage of free RNA is determined by dividing the fluorescence intensity of the intact sample (without addition of Triton X-100) by the fluorescence value of the disrupted sample (caused by the addition of Triton X-100).
The efficiency of encapsulation of a therapeutic and/or prophylactic describes the amount of therapeutic and/or prophylactic that is encapsulated or otherwise associated with a lipid nanoparticle (e.g., an empty LNP or a loaded LNP) after preparation, relative to the initial amount provided. The encapsulation efficiency is desired to be high (e.g., close to 100%). The encapsulation efficiency may be measured, for example, by comparing the amount of therapeutic and/or prophylactic in a solution containing a loaded LNP before and after breaking up the loaded LNP with one or more organic solvents or detergents. Fluorescence may be used to measure the amount of free therapeutic and/or prophylactic (e.g., RNA) in a solution. For the loaded LNPs formulated with lipids of the disclosure, the encapsulation efficiency of a therapeutic and/or prophylactic is at least 50%, for example 50%, 55%, 60%, 65%, 70%, 75%, 80%, 85%, 90%, 91%, 92%, 93%, 94%, 95%, 96%, 97%, 98%, 99%, or 100%. In some embodiments, the encapsulation efficiency is at least 80%. In some embodiments, the encapsulation efficiency is at least 90%. In some embodiments, the encapsulation efficiency of the therapeutic and/or prophylactic agent is between 80% and 100%.
(§1) Lipid nanoparticles (e.g., empty LNPs or loaded LNPs) including DSPC as a phospholipid, cholesterol as a structural lipid, PL-II (e.g., PEG-1) as a PEG lipid, and a lipid according to Formula (I-1), (I), (I-A), (I-A1), (I-A2), (I-A3), or (I-A4) were prepared. In some embodiments, the lipid nanoparticles further included rhodamine-DOPE as a fluorescent lipid. Tables 2a, 2b, and 3 summarize the characteristics of the formulations.

[4] = Particle size (diameter) and polydispersity index of lipid nanoparticles; format: physicochemical; details: nanoparticles comprising the lipid
Protocol: A Zetasizer Nano ZS (Malvern Instruments Ltd, Malvern, Worcestershire, UK) can be used to determine the particle size, the polydispersity index (PDI) and the zeta potential of the nanoparticle compositions in 1×PBS in determining particle size and 15 mM PBS in determining zeta potential.
Lipid nanoparticles (e.g., empty LNPs or loaded LNPs) may be characterized by a variety of methods. For example, microscopy (e.g., transmission electron microscopy or scanning electron microscopy) may be used to examine the morphology and size distribution of a nanoparticle composition. Dynamic light scattering or potentiometry (e.g., potentiometric titrations) may be used to measure zeta potentials. Dynamic light scattering may also be utilized to determine particle sizes. Instruments such as the Zetasizer Nano ZS (Malvern Instruments Ltd, Malvern, Worcestershire, UK) may also be used to measure multiple characteristics of a nanoparticle composition, such as particle size, polydispersity index, and zeta potential.
as §1

CD-1 mice = assay: Expression of hEPO induced by LNPs (mRNA encoding hEPO) administered to mice; format: in vivo; details: Table 4a, serum, 6 h after intravenous injection; for Avg. hEPO Concentration (mIU/mL)* ± Avg. SD: ELLA Simple Plex Assay
Protocol: In some embodiments, hEPO concentrations were determined using an […] (ELLA) Simple Plex Assay (ProteinSimple) with a Human Erythroprotein cartridge. Standards for this assay are calibrated according to the 2. IRP WHO preparation. Nanoparticle compositions including mRNA are useful in the evaluation of the efficacy and usefulness of various formulations for the delivery of therapeutic and/or prophylactics. Higher levels of protein expression induced by administration of a composition including an mRNA will be indicative of higher mRNA translation and/or nanoparticle composition mRNA delivery efficiencies. As the non-RNA components are not thought to affect translational machineries themselves, a higher level of protein expression is likely indicative of a higher efficiency of delivery of the therapeutic and/or prophylactic by a given nanoparticle composition relative to other nanoparticle compositions or the absence thereof.
To assess potency of expression of lipids of the disclosure, the protein expression (hEPO) following administration of a nanoparticle comprising a lipid of the disclosure (e.g., a loaded LNP) to mice was measured.
Lipid nanoparticles (LNPs) including DSPC as a phospholipid, cholesterol as a structural lipid, PL-II (e.g., PEG-1) as a PEG lipid, a lipid according to Formula (I-1), (I), (I-A), (I-A1), (I-A2), (I-A3), or (I-A4), and an mRNA encoding hEPO were intravenously administered to CD-1 mice. The concentration of hEPO in serum was tested at 6 h after injection.

[5] = Table 2a, DSPC, cholesterol, PEG lipid

Structure (SMILES) | Apparent pKa 95% CI [1] | LNP surface hydrophobicity (N-GP*) [2] | % EE ([3]; Table 2b) [%] | % EE ([3]; Table 3) [%] | Diameter (nm) ([4]; Table 2b) | PDI ([4]; Table 2b) | Diameter (nm) ([4]; Table 3) | PDI ([4]; Table 3) | Avg. hEPO Concentration (mIU/mL)* ± Avg. SD (CD-1 mice) [mIU/mL] | Apparent pKa [1] | Lipid nanoparticle surface hydrophobicity (N-GP*) [2] | % EE ([3]; Table 2a) [%] | PDI ([4]; Table 2a) | Diameter (nm) [4, 5] [nm] | Avg. hEPO Concentration (mIU/mL) ± Avg. SD (CD-1 mice) [mIU/mL]
CCCCCC(CCCCC)CCOC(=O)CCCCCCCN(CCCCCCCC(=O)OCCC(CCCC)CCCC)CCCNc1ncccc1N [Compound 14] | 6.808 to 6.931 | 1.00 | 94.4 | 98.6 | 184.7 | 0.366 | 111.7 | 0.282 | 5.96E+05 ± 9.17E+03 |  |  |  |  |  | 
CCCCCCCC(CCCCCCC)OC(=O)CCCCCCCN(CCCCCCCC(=O)OCCC(CCCC)CCCC)CCCNc1n[s+]([O-])nc1NC (centres unmarked) [Compound 15] |  |  |  | 97.2 |  |  | 74.2 | 0.212 |  | 6.761 | 0.94 | 96.6 | 0.128 | 76.4 | 3.74E+06 ± 1.61E+05
CCCCCCCC(CCCCCCC)OC(=O)CCCCCCCN(CCCCCCCC(=O)OCCC(CCCC)CCCC)CCCNc1noc(N)n1 [Compound 16] | 6.344 to 6.479 | 1.19 | 98.2 | 97.7 | 70.9 | 0.118 | 56.8 | 0.113 | 6.19E+05 ± 1.05E+04 |  |  |  |  |  | 
CCCCCCCC(CCCCCCC)OC(=O)CCCCCCCN(CCCCCCCC(=O)OCCC(CCCC)CCCC)CCCNS(=O)(=O)CCOC [Compound 17] |  |  |  | 93.5 |  |  | 90 | 0.129 |  | 6.689 | 1.02 | 77.1 | 0.128 | 89.7 | 1.00E+07 ± 2.34E+05
CCCCCCCC(CCCCCCC)OC(=O)CCCCCCCN(CCCCCCCC(=O)OCCC(CCCC)CCCC)CCCNC(=O)C1(C)CC1 [Compound 18] | 6.744 to 6.808 | 1.05 | 18.6 | 23.9 | 144.2 | 0.207 | 95.9 | 0.174 | 5.45E+06 ± 1.26E+05 |  |  |  |  |  | 
CCCCCCCC(CCCCCCC)OC(=O)CCCCCCCN(CCCCCCCC(=O)OCCC(CCCC)CCCC)CCCNS(=O)(=O)CC [Compound 19] | 6.572 to 6.671 | 1.00 | 77.0 | 94.5 | 86.4 | 0.187 | 84.5 | 0.129 |  | 6.551 | 1.00 | 77.2 | 0.127 | 82.8 | 1.36E+07 ± 2.52E+05
CCCCCCCC(CCCCCCC)OC(=O)CCCCCCCN(CCCCCCCC(=O)OCCC(CCCC)CCCC)CCCNS(=O)(=O)Cc1ccon1 [Compound 20] | 6.441 to 6.526 | 1.00 | 84.0 | 87.5 | 76.7 | 0.132 | 66 | 0.106 | 5.30E+06 ± 1.59E+05 |  |  |  |  |  | 
CCCCCCCC(CCCCCCC)OC(=O)CCCCCCCN(CCCCCCCC(=O)OCCC(CCCC)CCCC)CCCNc1ncccc1N [Compound 21] | 6.685 to 6.778 | 1.18 | 97.9 | 98.4 | 98.9 | 0.305 | 92.8 | 0.255 | 8.77E+05 ± 1.73E+04 |  |  |  |  |  | 
CCCCCC(CCCCC)CCOC(=O)CCCCCCCN(CCCCCCCC(=O)OCCC(CCCCC)CCCCC)CCCNc1n[s+]([O-])nc1NC (centres unmarked) [Compound 22] |  |  |  | 97.2 |  |  | 83.4 | 0.195 |  | 6.895 | 1.03 | 95.6 | 0.104 | 78.3 | 7.14E+06 ± 1.53E+05
CCCCCC(CCCCC)CCOC(=O)CCCCCCCN(CCCCCCCC(=O)OCCC(CCCCC)CCCCC)CCCNc1noc(N)n1 [Compound 23] | 6.511 to 6.611 | 0.95 | 98.1 | 96.4 | 87.2 | 0.181 | 62.7 | 0.144 | 1.17E+06 ± 1.91E+04 |  |  |  |  |  | 
CCCCCC(CCCCC)CCOC(=O)CCCCCCCN(CCCCCCCC(=O)OCCC(CCCCC)CCCCC)CCCNS(=O)(=O)CCOC [Compound 24] |  |  |  | 95.4 |  |  | 93.8 | 0.17 |  | 6.725 | 1.05 | 82.9 | 0.112 | 87.9 | 8.30E+06 ± 1.36E+05
